Consider five compounds from paper PMC11577759, “The structure of lipopeptides impacts their antiviral activity and mode of action against SARS-CoV-2 in vitro” (Applied and Environmental Microbiology, 2024).

Data set [1] has as its system SARS-CoV-2. Kind of data set: Replication / antiviral assay, viral RNA in supernatant by RT-qPCR. To be noted: for Viral RNA concentration per milliliter: surfactin 35, WLIP 20, caspofungin 100 µg/mL; for Reduction of viral RNA concentration / Reduction in viral RNA: surfactin 35, WLIP 20, fengycin 50, caspofungin 100 µg/mL; for EC50: Severe acute respiratory syndrome coronavirus 2, Vero C1008, 72 h, read-out: EC50 (half maximal effective concentration); for EC50 / EC50 (half maximal effective concentration): mean (standard deviation); for Reduction in viral RNA: 72 h (Fig. 5); for EC50 (half maximal effective concentration): SARS-CoV-2 MOI 0.01, Vero E6, viral RNA at 72 h pi by RT-qPCR. Format: cell-based.

The test system of data set [2] is SARS-CoV-2. It is filed as cell-based. To be noted: cells pre-treated, surfactin 35, WLIP 20, fengycin 50, caspofungin 100 µg/mL.
Data set [3] has as its system SARS-CoV-2. Nature of the data set: Binding inhibition: pre-treatment of SARS-CoV-2 and incubation on cells. Format: cell-based. Conditions: virus pre-treated, surfactin 35, WLIP 20, fengycin 50, caspofungin 100 µg/mL.
Data set [4] deals with SARS-CoV-2. Conditions: surfactin 35, WLIP 20, fengycin 50, caspofungin 100 µg/mL; 100% = untreated infected cells at 37°C.
Method: To determine the impact of lipopeptides on the fusion step, intracellular viral RNA was quantified after infection of cells with SARS-CoV-2 but before the budding step. […] The cells were pre-chilled for 15 min on ice. The cells were infected with SARS-CoV-2 (MOI of 10) in DMEM + 2% FBS and incubated for 2 h on ice with gentle agitation. The inoculum was removed, and the cells were gently washed three times with ice-cold DPBS. The positive control was inactivated to determine the basal viral RNA concentration after binding of the virus. The lipopeptides were added to room temperature DMEM + 2% (vol/vol) FBS and incubated at 37°C for 7 h. […] The cells were rinsed with DPBS, and the wells were dried. The samples were inactivated for 30 min at 70°C before quantification of the viral RNA by RT-qPCR. Every sample was tested in triplicate.
For another data set, the system named is Vero E6 cells. Nature of the data set: Cytotoxicity, CyQUANT XTT cell viability assay. It is filed as cell-based, Chlorocebus sp. To be noted: for Cell viability / IC50 (half maximal inhibitory concentration, cytotoxicity): 72 h; for IC50 (half maximal inhibitory concentration, cytotoxicity): Vero E6 cells, XTT, mean (standard deviation), fengycin and caspofungin determined at higher concentrations in a subsequent experiment. How it is done:
(§1) Chlorocebus sp. kidney epithelial cells (Vero E6; ATCC VERO C1008) were cultured in Dulbecco’s Modified Eagle medium (DMEM) High Glucose w/ Stable Glutamine w/ Sodium Pyruvate (VWR, USA) supplemented with 2% (vol/vol) of decomplemented fetal bovine serum (FBS, Biowest, France) and 1% (vol/vol) Penicillin-Streptomycin (VWR, USA). The cells were grown at 37°C in a humidified 5% CO2 atmosphere. Cells were routinely passaged when they reached 100% confluence and were passaged until passage 15.
(§2) The cytotoxic activity of the lipopeptides was assessed using a CyQUANT XTT Cell Viability Assay (Thermo Fisher Scientific) according to the manufacturer’s instructions. […] The cells were then incubated for 72 h at 37°C. The kit was then used following the manufacturer’s instructions, and the plates were read at 450 nm and 660 nm using a Multiskan GO Microplate Spectrophotometer (Thermo Fisher Scientific). The percentage of viable cells was calculated as (AT450 − AT660 − AB450) / (AC450 − AC660) × 100%, where AT450, AT660, AB450, AC450, and AC660 represent the absorbance of the tested well at 450 nm, of the tested well at 660 nm, of the blank (only medium) at 450 nm, of the control cells at 450 nm, and of the control cells at 660 nm, respectively. One hundred percent viability corresponds to the viability of uninfected cells. DMSO concentrations ranging from 0.5% (vol/vol) to 0.001% (vol/vol) were used as a negative control for the assay. Every sample was tested in triplicate.
In general terms: Tetrazolium assays rely on reduction of a dye to a coloured formazan, in cell work by metabolically active cells.

The nature of data set [5]: Cytotoxicity, CyQUANT XTT cell viability assay. It is filed as cell-based, Chlorocebus sp. Conditions: Chlorocebus sp. (African green monkey), Vero E6 cells; for IC50 at 72 h: Vero E6 cells (kidney epithelial cells), XTT, mean (standard deviation), fengycin and caspofungin determined at higher concentrations in a subsequent experiment, read-out: IC50 (half maximal inhibitory concentration, cytotoxicity); for viability at 72 h: surfactin 35, WLIP 20, fengycin 50, caspofungin 100 µg/mL, Vero E6 (Fig. 5). Here is the method:
as §1, §2

Data set [6] concerns SARS-CoV-2. More on the design: method as in doi:10.3390/applmicrobiol2030052. To be noted: 1 mg/mL, Vero E6 cells; cited from earlier work.
The test system of data set [7] is SARS-CoV-2. Nature of the data set: Budding inhibition assay. To be noted: 10 h pi, surfactin 35 µg/mL. It is filed as cell-based. Here is the method: Fresh medium was added to the cells, and the plates were incubated for 5 h at 37°C. The supernatant was discarded, and lipopeptides were added to the cells. A sample of cell supernatant was taken every hour for 4 h. After infection, the control was kept at 4°C to inhibit the release of virions, and act as a positive control of the experiment. […] Every sample was tested in triplicate.

Data set [8] concerns SARS-CoV-2. Nature of the data set: Direct antiviral assay by viral titration (TCID50). Conditions: 1 h incubation with virus, vs virus alone.
A further data set concerns Vero cells. More on the design: method as in earlier work. Conditions: ref 38 (Shekunov et al.); cited from earlier work.
Data set [9] deals with SARS-CoV-2. Kind of data set: Binding inhibition: pre-infection treatment of cells. Conditions: cells pre-treated and cleared from unbound lipopeptide before infection; fengycin 50 µg/mL. Format: cell-based. How it is done:
For the binding inhibition assays, four different conditions (Fig. 1) were tested to assess the potential of lipopeptides to inhibit the attachment of SARS-CoV-2 to cells in different settings. […] In these assays, SARS-CoV-2 was used at an MOI of 10, and every sample was tested in triplicate. Some steps were performed at 4°C to rigidify the cellular and viral membranes, allowing the virus to bind to the cells but not fuse with the […], as detailed below.
The cell supernatant was discarded, and the lipopeptides were added to the cells, which were subsequently incubated for 1 h at 37°C with gentle agitation. […] The viral stock was then added to the cells, which were subsequently incubated on ice for 1 h with gentle agitation.

In data set [10] the test system is SARS-CoV-2. Set-up: method as in PMID 36868316. To be noted: co-incubated with SARS-CoV-2; 12.5 µg/mL iturin A, 25 µg/mL mycosubtilin; Vero cells; cited from earlier work.
[11] abbreviates: 24 h pi, serum diluted five times.
The mark [12] stands for this setting: 72 h pi, serum diluted five times, […].
Setting [13] is: 100 µg/mL, 72 h pi, compared to untreated infected cells.

Values after ≈ are worked out from the molar mass of the structure shown. “Also recorded” adds a separate entry of the source. Like-named read-outs stand apart in the source and are kept apart here. Marks after values point to notes of the source that are not given here. Starred links: 1 amine or outer side, 2 acyl side, 3 side chain; linkers in the order of their positions; H or OH if unused. Positions of bridges follow the written chain, without caps; N, C: chain ends. Non-standard residues stand in square brackets, D forms with d. Residues, ends and D or L forms follow the SMILES beside them. X1 = CC(C)CCCCCCCCC[C@H](CC(=O)[*:1])O[*:2]

One may read the viability as the share of living cells, or the viability signal relative to a control. High values mean less harm to the cells, low ones more harm to the cells. For the compound `CC[C@H](C)C[C@H](C)CCCCCCCCC(=O)N[C@H]1C[C@@H](O)[C@@H](NCCN)NC(=O)[C@@H]2[C@@H](O)CCN2C(=O)[C@H]([C@H](O)CCN)NC(=O)[C@H]([C@H](O)[C@@H](O)c2ccc(O)cc2)NC(=O)[C@@H]2C[C@@H](O)CN2C(=O)[C@H]([C@@H](C)O)NC1=O` [Caspofungin, reference compound], the entries for the “Maximal RNA reduction at 100 µg/mL” value in the data set on SARS-CoV-2 [1] and in the data set on SARS-CoV-2 [1] (listed as caspofungin) were 3.7-log and 3.7 log, respectively. Besides, the “Viral RNA concentration per milliliter” value was 7.9 × 10^2 RNA concentration per milliliter in the data set with SARS-CoV-2 [1] (setting [11]) and 1.8 × 10^4 RNA concentration per milliliter in the data set with SARS-CoV-2 [1] (72 h pi). In addition, in the data set with SARS-CoV-2 [1] (setting [12]), the “Reduction of viral RNA concentration” value amounted to 2.1 log. Moreover, the EC50 in the data set with SARS-CoV-2 [1] ([…]) stood at 140 µg/mL (≈ 128 µM). Further, the “Reduction in viral RNA” value in the data set with SARS-CoV-2 [1] was 2.4 log. Further, the “Binding percentage of SARS-CoV-2 to cells” value (shortened to “Binding percentage”) in the data set on SARS-CoV-2 [2] was 81%; in the data set with SARS-CoV-2 [3], “did not show any effect on the binding percentage”. The Fusion percentage in the data set on SARS-CoV-2 [4] is 51.4%. The Cytotoxicity result in the data set on Vero E6 cells (concentrations up to 100 µg/mL, Vero E6, 72 h) is recorded as “did not cause any cytotoxicity; also recorded: without any apparent cytotoxicity”. Moreover, the IC50 at 72 h in [5] was found to be 129 µg/mL (≈ 118 µM). Moreover, in [5], the viability at 72 h came to 96.9%.
As to `CC(C)CCCCCCCCC[C@@H]1CC(=O)N[C@@H](CCC(=O)O)C(=O)N[C@@H](CC(C)C)C(=O)N[C@H](CC(C)C)C(=O)N[C@@H](C(C)C)C(=O)N[C@@H](CC(=O)O)C(=O)N[C@H](CC(C)C)C(=O)N[C@@H](CC(C)C)C(=O)O1` [Surfactin] (EL[dL]VD[dL]L; linker N-C via X1), the “Maximal RNA reduction at 100 µg/mL” value with SARS-CoV-2 [1] was 6.3-log; in the data set on SARS-CoV-2 [1] (listed as surfactin), 6.3 log. Also, the “Viral RNA” value in the data set on SARS-CoV-2 [1] (45 µg/mL) was “no viral RNA was detected”. The “SARS-CoV-2 RNA concentration” value in the data set with SARS-CoV-2 [1] (100 µg/mL, at every timepoint (24, 48, 72 h)) is recorded as “non-detectable levels”. Besides, the “Viral RNA concentration per milliliter” value in the data set with SARS-CoV-2 [1] (setting [11]) is recorded as 2.5 × 10^2 RNA concentration per milliliter; in the data set with SARS-CoV-2 [1] (72 h pi), 5.7 × 10^1 RNA concentration per milliliter. Besides, the “Reduction of viral RNA concentration” value in the data set on SARS-CoV-2 [1] (24 h pi, serum diluted five times, […]) is recorded as 1.1 log; in the data set on SARS-CoV-2 [1] (setting [12]) it was 4.6 log. The EC50 with SARS-CoV-2 [1] ([…]) came to 50 µg/mL (≈ 48.2 µM). Besides, the “Reduction in viral RNA” value in the data set with SARS-CoV-2 [1] is 2.9 log. Also, the “Binding percentage” value was 10.0% in the data set with SARS-CoV-2 [2] and 34.7% in the data set on SARS-CoV-2 [3]. In the data set on SARS-CoV-2 [6], the SARS-CoV-2 infectivity result was “able to reduce SARS-CoV-2 infectivity”. Also, the Fusion percentage in the data set with SARS-CoV-2 [4] amounted to 10.4%. Besides, the “Reduction of RNA concentration (budding)” value in the data set with SARS-CoV-2 [7] stood at 1 log. Also, the “RNA concentration per milliliter in supernatant (budding)” value in the data set with SARS-CoV-2 [7] (infected cells without treatment 8646.9) was 858.7 RNA concentration per milliliter. Also, the “Reduction in viral titer (direct effect)” value is recorded as 1.6 log in the data set with SARS-CoV-2 [8] (100 µg/mL) and “did not directly inactivate SARS-CoV-2” in the data set with SARS-CoV-2 [8] (surfactin 35, WLIP 20, fengycin 50, caspofungin 100 µg/mL, serum diluted five times). The IC50 at 72 h in [5] is 51.5 µg/mL (≈ 49.7 µM). The viability at 72 h, 45 µg/mL in data set [5] (45 µg/mL) is ~0%. Further, the viability at 72 h in data set [5] came out at 98.5%. The IC50 with Vero cells is reported as 0.6 µg/mL (≈ 0.579 µM).
Fengycin: the “Reduction of viral RNA concentration” value is listed as “did not reduce the RNA concentration” with SARS-CoV-2 [1] (24 h pi, serum diluted five times, vs infected cells (Fig. 6)) and 0.6 log in the data set with SARS-CoV-2 [1] (72 h pi, serum diluted five times, vs infected cells (Fig. 6)). Moreover, in the data set with SARS-CoV-2 [1], the “EC50 (half maximal effective concentration)” value is 71.7 (20.7) µg/mL. For the same compound, the “Reduction in viral RNA” value with SARS-CoV-2 [1] came to 3.2 log. In addition, the results for the “Binding percentage” value with SARS-CoV-2 [2], with SARS-CoV-2 [3] and in the data set with SARS-CoV-2 [9] were 11.3%, 21.7% and 54%, respectively. Also, the Fusion percentage in the data set with SARS-CoV-2 [4] is 17.2%. Also, the Cell viability came to 64.1% with Vero E6 cells (100 µg/mL, Vero E6) and 89.9% in the data set with Vero E6 cells (surfactin 35, WLIP 20, fengycin 50, caspofungin 100 µg/mL, Vero E6 (Fig. 5)). The “IC50 (half maximal inhibitory concentration, cytotoxicity)” value in the data set with Vero E6 cells was 295.3 (28.3)^b µg/mL.
Take Iturin A: the “Maximal RNA reduction at 100 µg/mL” value in the data set with SARS-CoV-2 [1] (setting [13]) is listed as 3.9-log. In addition, the “EC50 (half maximal effective concentration)” value with SARS-CoV-2 [1] is reported as 18.2 (1.8) µg/mL. Moreover, the “Viral titer and SARS-CoV-2 cytopathic effects” value in the data set with SARS-CoV-2 [10] was “could reduce the viral titer and SARS-CoV-2 cytopathic effects (CPEs)”. The Cell viability entry with Vero E6 cells (100 µg/mL, Vero E6) is listed as “no cell viability was observed”. Further, in the data set with Vero E6 cells, the “IC50 (half maximal inhibitory concentration, cytotoxicity)” value was 4.9 (0.5) µg/mL.
For the compound Mycosubtilin, the “Maximal RNA reduction at 100 µg/mL” value with SARS-CoV-2 [1] (setting [13]) is on record as 4.1-log. For the same compound, the “EC50 (half maximal effective concentration)” value in the data set on SARS-CoV-2 [1] is recorded as 12.9 (2.0) µg/mL. The “Viral titer and SARS-CoV-2 cytopathic effects” value in the data set with SARS-CoV-2 [10] was “could reduce the viral titer and SARS-CoV-2 cytopathic effects (CPEs)”. The Cell viability result in the data set on Vero E6 cells (100 µg/mL, Vero E6) is recorded as “no cell viability was observed”. For the same compound, the “IC50 (half maximal inhibitory concentration, cytotoxicity)” value in the data set on Vero E6 cells is 1.8 (0.1) µg/mL.
